{"source": "patent US20030118577A1", "about": "“Use of analogues of superoxide dismutase for treating hepatocellular insufficiencies” (priority 2000, published 2003)", "key": {"[1]": {"tested_on": "acute hepatic insufficiency induced by acetaminophen", "test": "Survival of mice after intraperitoneal acetaminophen (acute hepatic insufficiency)"}, "[2]": {"test": "Glutathione peroxidase activity of the mimetic", "assay_type": "biochemical", "details": "observed by the inventors"}}}
{"smiles": "O=C(O)c1ccc(-c2c3nc(c(-c4ccc(C(=O)O)cc4)c4ccc([n-]4)c(-c4ccc(C(=O)O)cc4)c4nc(c(-c5ccc(C(=O)O)cc5)c5ccc2[n-]5)C=C4)C=C3)cc1.[Mn+3]", "note": "[MnTBAP, Mn(III) tetrakis(5,10,15,20-benzoic acid)porphyrin]", "values": [{"measurement": "percentage of surviving animals", "setting": "[1]; Group V: APAP 1000 mg/kg, MnTBAP 10 mg/kg (P), time 17 h", "result": 68.6, "unit": "%"}, {"measurement": "percentage of surviving animals", "setting": "[1]; Group V: APAP 1000 mg/kg, MnTBAP 10 mg/kg (P), time 18 h", "result": 65.7, "unit": "%"}, {"measurement": "percentage of surviving animals", "setting": "[1]; Group V: APAP 1000 mg/kg, MnTBAP 10 mg/kg (P), time 20 h", "result": 65.7, "unit": "%"}, {"measurement": "percentage of surviving animals", "setting": "[1]; Group V: APAP 1000 mg/kg, MnTBAP 10 mg/kg (P), time 22 h", "result": 65.7, "unit": "%"}, {"measurement": "percentage of surviving animals", "setting": "[1]; Group V: APAP 1000 mg/kg, MnTBAP 10 mg/kg (P), time 24 h", "result": 62.9, "unit": "%"}, {"measurement": "percentage of surviving animals", "setting": "[1]; Group VI: APAP 1000 mg/kg, MnTBAP 20 mg/kg (P), time 0 h", "result": 100, "unit": "%"}, {"measurement": "percentage of surviving animals", "setting": "[1]; Group VI: APAP 1000 mg/kg, MnTBAP 20 mg/kg (P), time 6 h", "result": 100, "unit": "%"}, {"measurement": "percentage of surviving animals", "setting": "[1]; Group VI: APAP 1000 mg/kg, MnTBAP 20 mg/kg (P), time 8 h", "result": 100, "unit": "%"}, {"measurement": "percentage of surviving animals", "setting": "[1]; Group VI: APAP 1000 mg/kg, MnTBAP 20 mg/kg (P), time 9 h", "result": 100, "unit": "%"}, {"measurement": "percentage of surviving animals", "setting": "[1]; Group VI: APAP 1000 mg/kg, MnTBAP 20 mg/kg (P), time 10 h", "result": 100, "unit": "%"}, {"measurement": "percentage of surviving animals", "setting": "[1]; Group VI: APAP 1000 mg/kg, MnTBAP 20 mg/kg (P), time 11 h", "result": 100, "unit": "%"}, {"measurement": "percentage of surviving animals", "setting": "[1]; Group VI: APAP 1000 mg/kg, MnTBAP 20 mg/kg (P), time 12 h", "result": 100, "unit": "%"}, {"measurement": "percentage of surviving animals", "setting": "[1]; Group VI: APAP 1000 mg/kg, MnTBAP 20 mg/kg (P), time 13 h", "result": 100, "unit": "%"}, {"measurement": "percentage of surviving animals", "setting": "[1]; Group VI: APAP 1000 mg/kg, MnTBAP 20 mg/kg (P), time 14 h", "result": 100, "unit": "%"}, {"measurement": "percentage of surviving animals", "setting": "[1]; Group VI: APAP 1000 mg/kg, MnTBAP 20 mg/kg (P), time 15 h", "result": 90, "unit": "%"}, {"measurement": "percentage of surviving animals", "setting": "[1]; Group VI: APAP 1000 mg/kg, MnTBAP 20 mg/kg (P), time 16 h", "result": 90, "unit": "%"}, {"measurement": "percentage of surviving animals", "setting": "[1]; Group VI: APAP 1000 mg/kg, MnTBAP 20 mg/kg (P), time 17 h", "result": 90, "unit": "%"}, {"measurement": "percentage of surviving animals", "setting": "[1]; Group VI: APAP 1000 mg/kg, MnTBAP 20 mg/kg (P), time 18 h", "result": 90, "unit": "%"}, {"measurement": "percentage of surviving animals", "setting": "[1]; Group VI: APAP 1000 mg/kg, MnTBAP 20 mg/kg (P), time 20 h", "result": 90, "unit": "%"}, {"measurement": "percentage of surviving animals", "setting": "[1]; Group VI: APAP 1000 mg/kg, MnTBAP 20 mg/kg (P), time 22 h", "result": 90, "unit": "%"}, {"measurement": "percentage of surviving animals", "setting": "[1]; Group VI: APAP 1000 mg/kg, MnTBAP 20 mg/kg (P), time 24 h", "result": 90, "unit": "%"}, {"measurement": "percentage of surviving animals", "setting": "[1]; Group VII: APAP 1000 mg/kg, MnTBAP 10 mg/kg (C), time 0 h", "result": 100, "unit": "%"}, {"measurement": "percentage of surviving animals", "setting": "[1]; Group VII: APAP 1000 mg/kg, MnTBAP 10 mg/kg (C), time 6 h", "result": 100, "unit": "%"}, {"measurement": "percentage of surviving animals", "setting": "[1]; Group VII: APAP 1000 mg/kg, MnTBAP 10 mg/kg (C), time 8 h", "result": 100, "unit": "%"}, {"measurement": "percentage of surviving animals", "setting": "[1]; Group VII: APAP 1000 mg/kg, MnTBAP 10 mg/kg (C), time 9 h", "result": 100, "unit": "%"}, {"measurement": "percentage of surviving animals", "setting": "[1]; Group VII: APAP 1000 mg/kg, MnTBAP 10 mg/kg (C), time 10 h", "result": 94, "unit": "%"}, {"measurement": "percentage of surviving animals", "setting": "[1]; Group VII: APAP 1000 mg/kg, MnTBAP 10 mg/kg (C), time 11 h", "result": 94, "unit": "%"}, {"measurement": "percentage of surviving animals", "setting": "[1]; Group VII: APAP 1000 mg/kg, MnTBAP 10 mg/kg (C), time 12 h", "result": 81, "unit": "%"}, {"measurement": "percentage of surviving animals", "setting": "[1]; Group VII: APAP 1000 mg/kg, MnTBAP 10 mg/kg (C), time 13 h", "result": 69, "unit": "%"}, {"measurement": "percentage of surviving animals", "setting": "[1]; Group VII: APAP 1000 mg/kg, MnTBAP 10 mg/kg (C), time 14 h", "result": 69, "unit": "%"}, {"measurement": "percentage of surviving animals", "setting": "[1]; Group VII: APAP 1000 mg/kg, MnTBAP 10 mg/kg (C), time 15 h", "result": 69, "unit": "%"}, {"measurement": "percentage of surviving animals", "setting": "[1]; Group VII: APAP 1000 mg/kg, MnTBAP 10 mg/kg (C), time 16 h", "result": 56, "unit": "%"}, {"measurement": "percentage of surviving animals", "setting": "[1]; Group VII: APAP 1000 mg/kg, MnTBAP 10 mg/kg (C), time 17 h", "result": 56, "unit": "%"}, {"measurement": "percentage of surviving animals", "setting": "[1]; Group VII: APAP 1000 mg/kg, MnTBAP 10 mg/kg (C), time 18 h", "result": 56, "unit": "%"}, {"measurement": "percentage of surviving animals", "setting": "[1]; Group VII: APAP 1000 mg/kg, MnTBAP 10 mg/kg (C), time 20 h", "result": 56, "unit": "%"}, {"measurement": "percentage of surviving animals", "setting": "[1]; Group VII: APAP 1000 mg/kg, MnTBAP 10 mg/kg (C), time 22 h", "result": 56, "unit": "%"}, {"measurement": "percentage of surviving animals", "setting": "[1]; Group VII: APAP 1000 mg/kg, MnTBAP 10 mg/kg (C), time 24 h", "result": 44, "unit": "%"}, {"measurement": "percentage of surviving animals", "setting": "[1]; Group VIII: APAP 1000 mg/kg, MnTBAP 20 mg/kg (C), time 0 h", "result": 100, "unit": "%"}, {"measurement": "percentage of surviving animals", "setting": "[1]; Group VIII: APAP 1000 mg/kg, MnTBAP 20 mg/kg (C), time 6 h", "result": 100, "unit": "%"}, {"measurement": "percentage of surviving animals", "setting": "[1]; Group VIII: APAP 1000 mg/kg, MnTBAP 20 mg/kg (C), time 8 h", "result": 100, "unit": "%"}, {"measurement": "percentage of surviving animals", "setting": "[1]; Group VIII: APAP 1000 mg/kg, MnTBAP 20 mg/kg (C), time 9 h", "result": 100, "unit": "%"}, {"measurement": "percentage of surviving animals", "setting": "[1]; Group VIII: APAP 1000 mg/kg, MnTBAP 20 mg/kg (C), time 10 h", "result": 100, "unit": "%"}, {"measurement": "percentage of surviving animals", "setting": "[1]; Group VIII: APAP 1000 mg/kg, MnTBAP 20 mg/kg (C), time 11 h", "result": 100, "unit": "%"}, {"measurement": "percentage of surviving animals", "setting": "[1]; Group VIII: APAP 1000 mg/kg, MnTBAP 20 mg/kg (C), time 12 h", "result": 90, "unit": "%"}, {"measurement": "percentage of surviving animals", "setting": "[1]; Group VIII: APAP 1000 mg/kg, MnTBAP 20 mg/kg (C), time 13 h", "result": 90, "unit": "%"}, {"measurement": "percentage of surviving animals", "setting": "[1]; Group VIII: APAP 1000 mg/kg, MnTBAP 20 mg/kg (C), time 14 h", "result": 90, "unit": "%"}, {"measurement": "percentage of surviving animals", "setting": "[1]; Group VIII: APAP 1000 mg/kg, MnTBAP 20 mg/kg (C), time 15 h", "result": 90, "unit": "%"}, {"measurement": "percentage of surviving animals", "setting": "[1]; Group VIII: APAP 1000 mg/kg, MnTBAP 20 mg/kg (C), time 16 h", "result": 90, "unit": "%"}, {"measurement": "percentage of surviving animals", "setting": "[1]; Group VIII: APAP 1000 mg/kg, MnTBAP 20 mg/kg (C), time 17 h", "result": 80, "unit": "%"}, {"measurement": "percentage of surviving animals", "setting": "[1]; Group VIII: APAP 1000 mg/kg, MnTBAP 20 mg/kg (C), time 18 h", "result": 80, "unit": "%"}, {"measurement": "percentage of surviving animals", "setting": "[1]; Group VIII: APAP 1000 mg/kg, MnTBAP 20 mg/kg (C), time 20 h", "result": 70, "unit": "%"}, {"measurement": "percentage of surviving animals", "setting": "[1]; Group VIII: APAP 1000 mg/kg, MnTBAP 20 mg/kg (C), time 22 h", "result": 70, "unit": "%"}, {"measurement": "percentage of surviving animals", "setting": "[1]; Group VIII: APAP 1000 mg/kg, MnTBAP 20 mg/kg (C), time 24 h", "result": 70, "unit": "%"}, {"measurement": "death of animals", "setting": "[1]; MnTBAP alone 10 mg/kg ip, no acetaminophen, 24 hours", "result": "No death"}, {"measurement": "glutathione peroxidase activity", "setting": "[2]", "result": "possessed, in addition, a glutathione peroxidase activity"}]}
